The record followed here is patent US7642245B2, “Antibacterial compounds having a (pyrrole carboxamide)-(benzamide)-(imidazole carboxamide) motif” (Oscient Pharmaceuticals Corporation, priority 2002, dated 2010).

One assay relates to S. aureus ATCC 13709. Briefly: MIC, NCCLS broth microdilution. The assay is classed as cell-based, Staphylococcus aureus. To be noted: A = S. aureus ATCC 13709 (MSSA). In short, it runs like this: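 Compounds were serially diluted in broth and tested against each strain according to NCCLS guidelines, with MIC taken as the endpoint. C. albicans was assayed per the Manual of Clinical Microbiology.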
On the technique in general: In broth dilution the organism is exposed to a series of concentrations in liquid medium.

A further assay deals with S. aureus ATCC 27660. Nature of the assay: MIC, NCCLS broth microdilution. The following applies: B = S. aureus ATCC 27660 (MRSA). The format is cell-based, Staphylococcus aureus. The procedure, abridged:
(§1)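 Broth microdilution, NCCLS M7-A4/M11-A4/M27-T guidelines; read-out MIC. MRSA strain for S. aureus. Candida: Manual of Clinical Microbiology method.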

A further assay has as its system E. faecalis ATCC 29212. Nature of the assay: MIC, NCCLS broth microdilution. The following applies: C = E. faecalis ATCC 29212. The assay is classed as cell-based, Enterococcus faecalis. In short, it runs like this: (§2)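 Minimal inhibitory concentration determined by NCCLS broth microdilution in microtiter plates per documents M7-A4, M11-A4 and M27-T. S. aureus ATCC 27660 is a methicillin-resistant strain. The antifungal test on C. albicans followed the method recommended in the Manual of Clinical Microbiology (1995).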

The test system of a further assay is B. cereus ATCC 11778. Nature of the assay: MIC, NCCLS broth microdilution. The format is cell-based, Bacillus cereus. To be noted: D = B. cereus ATCC 11778. The procedure, abridged: as §1
For a further assay, the system named is S. pneumoniae ATCC 49619. Nature of the assay: MIC, NCCLS broth microdilution. The assay is classed as cell-based, Streptococcus pneumoniae. The following applies: E = S. pneumoniae ATCC 49619. The procedure, abridged: as §2
Another assay relates to C. albicans ATCC 38247. Nature of the assay: MIC, antifungal assay. The assay is classed as cell-based, Candida albicans. The following applies: F = C. albicans ATCC 38247. In short, it runs like this: as §1
Another assay has as its system E. coli ATCC 25922. Nature of the assay: MIC, NCCLS broth microdilution. The following applies: G = E. coli ATCC 25922. The format is cell-based, Escherichia coli. The procedure, abridged: as §2
Assay [1] has as its system M. catarrhalis (ATCC 25238). Briefly: MIC, NCCLS broth microdilution. The assay is classed as cell-based, Moraxella (now Branhamella) catarrhalis. The following applies: H = M. catarrhalis (ATCC 25238). The procedure, abridged: as §1

For the molecule `Cn1cc(NC(=O)c2cc3ccccc3cn2)cc1C(=O)Nc1ccc(C(=O)Nc2cn(C)c(C(=O)NCCN(CCO)CCO)n2)cc1` [Compound A-54], the “Minimum Inhibitory Concentration (MIC)” value with S. aureus ATCC 13709 was “+++ (MIC ≦ 4 μg/mL)”; in the assay on S. aureus ATCC 27660, “+++ (MIC ≦ 4 μg/mL)”; in the assay on E. faecalis ATCC 29212, “+++ (MIC ≦ 4 μg/mL)”; with B. cereus ATCC 11778 it was “+++ (MIC ≦ 4 μg/mL)”; in the assay on S. pneumoniae ATCC 49619, “+++ (MIC ≦ 4 μg/mL)”; in the assay with C. albicans ATCC 38247 it was more than 32 µg/mL. The “Minimum Inhibitory Concentration (MIC)” value (in the assay on E. coli ATCC 25922; in assay [1]) was more than 32 µg/mL throughout.

As for `Cn1cc(NC(=O)c2cc3ccccc3cn2)cc1C(=O)Nc1ccc(C(=O)Nc2cn(C)c(C(=O)NCCNCCCCCO)n2)cc1` [Compound A-33], the “Minimum Inhibitory Concentration (MIC)” value was “+++ (MIC ≦ 4 μg/mL)” in the assay on S. aureus ATCC 13709; “+++ (MIC ≦ 4 μg/mL)” in the assay with S. aureus ATCC 27660; “+++ (MIC ≦ 4 μg/mL)” in the assay on E. faecalis ATCC 29212; “+++ (MIC ≦ 4 μg/mL)” in the assay on B. cereus ATCC 11778; “+++ (MIC ≦ 4 μg/mL)” in the assay on S. pneumoniae ATCC 49619; more than 32 µg/mL with C. albicans ATCC 38247. Moreover, the “Minimum Inhibitory Concentration (MIC)” value in the assay on E. coli ATCC 25922 is “+++ (MIC ≦ 4 μg/mL)”; in assay [1], more than 32 µg/mL.

On to `Cn1cc(NC(=O)c2cc3ccccc3cn2)cc1C(=O)Nc1ccc(C(=O)Nc2cn(C)c(C(=O)NCCN3CCOCC3)n2)cc1` [Compound A-10], for which the “Minimum Inhibitory Concentration (MIC)” value with S. aureus ATCC 13709 is “+++ (MIC ≦ 4 μg/mL)”; with S. aureus ATCC 27660, “+++ (MIC ≦ 4 μg/mL)”; in the assay on E. faecalis ATCC 29212 it was “+++ (MIC ≦ 4 μg/mL)”; in the assay on B. cereus ATCC 11778 it was “+++ (MIC ≦ 4 μg/mL)”; with S. pneumoniae ATCC 49619, “+++ (MIC ≦ 4 μg/mL)”; in the assay with C. albicans ATCC 38247 it was more than 32 µg/mL. For the same molecule, the “Minimum Inhibitory Concentration (MIC)” value was more than 32 µg/mL in the assay with E. coli ATCC 25922 and “+++ (MIC ≦ 4 μg/mL)” in assay [1].

Take `Cn1cc(NC(=O)c2cc3c([N+](=O)[O-])cccc3cn2)cc1C(=O)Nc1ccc(C(=O)Nc2cn(C)c(C(=O)NCCN3CCC(O)CC3)n2)cc1` [Compound A-7]: the “Minimum Inhibitory Concentration (MIC)” value was “+++ (MIC ≦ 4 μg/mL)” with S. aureus ATCC 13709; “+++ (MIC ≦ 4 μg/mL)” with S. aureus ATCC 27660; “+++ (MIC ≦ 4 μg/mL)” in the assay with E. faecalis ATCC 29212; “+++ (MIC ≦ 4 μg/mL)” with B. cereus ATCC 11778; “+++ (MIC ≦ 4 μg/mL)” with S. pneumoniae ATCC 49619; more than 32 µg/mL in the assay with C. albicans ATCC 38247. In addition, the “Minimum Inhibitory Concentration (MIC)” value in the assay on E. coli ATCC 25922 is more than 32 µg/mL; in assay [1], “+ (12 ≦ MIC ≦ 32 μg/mL)”.

For the molecule `Cn1cc(NC(=O)c2cc3ccccc3cn2)cc1C(=O)Nc1ccc(C(=O)Nc2cn(C)c(C(=O)NCCN3CCN(C(=O)CNC(=O)OC(C)(C)C)CC3)n2)cc1` [Compound A-64], the “Minimum Inhibitory Concentration (MIC)” value is “+++ (MIC ≦ 4 μg/mL)” in the assay on S. aureus ATCC 13709; “+++ (MIC ≦ 4 μg/mL)” in the assay with S. aureus ATCC 27660; “+++ (MIC ≦ 4 μg/mL)” in the assay with E. faecalis ATCC 29212; “+++ (MIC ≦ 4 μg/mL)” with B. cereus ATCC 11778; “+++ (MIC ≦ 4 μg/mL)” in the assay with S. pneumoniae ATCC 49619; more than 32 µg/mL in the assay on C. albicans ATCC 38247. The results for the “Minimum Inhibitory Concentration (MIC)” value (with E. coli ATCC 25922; in assay [1]) were more than 32 µg/mL and “++ (4 < MIC < 12 μg/mL)”, respectively.

Turning to `Cn1cc(NC(=O)c2cc3ccccc3cn2)cc1C(=O)Nc1ccc(C(=O)Nc2cn(C)c(C(=O)NCCN3CCN(S(C)(=O)=O)CC3)n2)cc1` [Compound A-56], the “Minimum Inhibitory Concentration (MIC)” value in the assay on S. aureus ATCC 13709 is “+++ (MIC ≦ 4 μg/mL)”; with S. aureus ATCC 27660, “+++ (MIC ≦ 4 μg/mL)”; with E. faecalis ATCC 29212, “+++ (MIC ≦ 4 μg/mL)”; in the assay on B. cereus ATCC 11778, “+++ (MIC ≦ 4 μg/mL)”; in the assay on S. pneumoniae ATCC 49619 it was “+++ (MIC ≦ 4 μg/mL)”; in the assay with C. albicans ATCC 38247, more than 32 µg/mL. Further, the “Minimum Inhibitory Concentration (MIC)” value with E. coli ATCC 25922 was more than 32 µg/mL; in assay [1], “+++ (MIC ≦ 4 μg/mL)”.

Turning to `COCC(C)NCCNC(=O)c1nc(NC(=O)c2ccc(NC(=O)c3cc(NC(=O)c4cc5ccccc5cn4)cn3C)cc2)cn1C` (centres unmarked) [Compound A-38], the “Minimum Inhibitory Concentration (MIC)” value was “+++ (MIC ≦ 4 μg/mL)” in the assay with S. aureus ATCC 13709; “+++ (MIC ≦ 4 μg/mL)” with S. aureus ATCC 27660; “+++ (MIC ≦ 4 μg/mL)” with E. faecalis ATCC 29212; “+++ (MIC ≦ 4 μg/mL)” in the assay on B. cereus ATCC 11778; “+++ (MIC ≦ 4 μg/mL)” in the assay with S. pneumoniae ATCC 49619; more than 32 µg/mL in the assay with C. albicans ATCC 38247. The “Minimum Inhibitory Concentration (MIC)” value was more than 32 µg/mL with E. coli ATCC 25922 and “+++ (MIC ≦ 4 μg/mL)” in assay [1].

As to `Cn1cc(NC(=O)c2cc3ccccc3cn2)cc1C(=O)Nc1ccc(C(=O)Nc2cn(C)c(C(=O)NCCN3CCC(F)(F)CC3)n2)cc1` [Compound A-11], the “Minimum Inhibitory Concentration (MIC)” value with S. aureus ATCC 13709 is “+++ (MIC ≦ 4 μg/mL)”; with S. aureus ATCC 27660 it was “+++ (MIC ≦ 4 μg/mL)”; in the assay with E. faecalis ATCC 29212 it was “+++ (MIC ≦ 4 μg/mL)”; in the assay on B. cereus ATCC 11778, “+++ (MIC ≦ 4 μg/mL)”; with S. pneumoniae ATCC 49619, “+++ (MIC ≦ 4 μg/mL)”; in the assay with C. albicans ATCC 38247 it was more than 32 µg/mL. The results for the “Minimum Inhibitory Concentration (MIC)” value (in the assay with E. coli ATCC 25922; in assay [1]) were more than 32 µg/mL and “+++ (MIC ≦ 4 μg/mL)”, respectively.

Regarding `Cn1cc(NC(=O)c2cc3ccccc3cn2)cc1C(=O)Nc1ccc(C(=O)Nc2cn(C)c(C(=O)NCCN3CCC(OC(=O)CCN)CC3)n2)cc1` [Compound A-60], the “Minimum Inhibitory Concentration (MIC)” value in the assay with S. aureus ATCC 13709 is recorded as “+++ (MIC ≦ 4 μg/mL)”; in the assay on S. aureus ATCC 27660 it was “+++ (MIC ≦ 4 μg/mL)”; with E. faecalis ATCC 29212, “+++ (MIC ≦ 4 μg/mL)”; in the assay on B. cereus ATCC 11778, “+++ (MIC ≦ 4 μg/mL)”; in the assay with S. pneumoniae ATCC 49619 it was “+++ (MIC ≦ 4 μg/mL)”; in the assay on C. albicans ATCC 38247 it was “++ (4 < MIC < 12 μg/mL)”. Moreover, the “Minimum Inhibitory Concentration (MIC)” value was more than 32 µg/mL in the assay with E. coli ATCC 25922 and “++ (4 < MIC < 12 μg/mL)” in assay [1].

Take `Cn1cc(NC(=O)c2sccc2Cl)cc1C(=O)Nc1ccc(C(=O)Nc2cn(C)c(C(=O)NCCN3CCC(O)CC3)n2)cc1` [Compound A-1]: the “Minimum Inhibitory Concentration (MIC)” value was “+++ (MIC ≦ 4 μg/mL)” with S. aureus ATCC 13709; “+++ (MIC ≦ 4 μg/mL)” with S. aureus ATCC 27660; “+++ (MIC ≦ 4 μg/mL)” with E. faecalis ATCC 29212; “+++ (MIC ≦ 4 μg/mL)” in the assay on B. cereus ATCC 11778; “+++ (MIC ≦ 4 μg/mL)” in the assay on S. pneumoniae ATCC 49619; more than 32 µg/mL with C. albicans ATCC 38247. Also, the “Minimum Inhibitory Concentration (MIC)” value was more than 32 µg/mL with E. coli ATCC 25922 and “+ (12 ≦ MIC ≦ 32 μg/mL)” in assay [1].
